The source of these data is ChEMBL document CHEMBL1158202, “Plakortides, novel cyclic peroxides from the sponge Plakortis halichondrioides: activators of cardiac SR-CA(2+)-pumping ATPase” (J Nat Prod, 1996).

Calls of active or inactive are those of the source. The calls are words filed in the database; no cut-off is given here.

For this test, the species on record is Canis lupus familiaris. Kind of test: Induction of Ca2+ uptake in sarcoplasmic reticular-vesicle isolated from dog cardiac ventricle at 10 to 100 uM by fluorimetric method. The test is classed as functional, tissue-based.

Take `CC/C=C/C(CC)CCC[C@@]1(CC)C[C@H](CC)[C@H](CC(=O)OC)OO1` (some centres undefined): the outcome was Active.
As to `CC/C=C/C(CC)C/C(C)=C/[C@]1(CC)C[C@H](CC)[C@H](CC(=O)OC)OO1` (some centres undefined), the result was Active.
As for `CC/C=C/C(CC)CCC[C@]1(CC)C[C@H](CC)[C@H](CC(=O)OC)OO1` (some centres undefined), the outcome was Active.
The entry for `CC/C=C/C(CC)C[C@@]1(C)C[C@@H](CC)[C@H](CC(=O)OC)OO1` (some centres undefined) is “Active”.
